Assays:
[1] = tested on: glioma cell lines; experiment: 72-hour acute cytotoxicity synergy assay in combination with regorafenib (ZIP synergy score); format: cell-based
Protocol: The combined inhibition of a resistance mechanism or a synthetic lethal interactor with regorafenib treatment should enhance the effect of regorafenib alone. Therefore, drugs targeting the different identified gene products were used in acute cytotoxicity synergy assays in combination with regorafenib to analyze the synergistic effect of drug combinations. Each of the 15 drugs was tested in a 72-hour acute cytotoxicity synergy assay in combination with regorafenib on six glioma cell lines in two independent runs. The calculated ZIP synergy score for each combination indicates if a combination is synergistic, the higher the score the stronger is the synergism. For the heatmaps shown in Fig. 3 the synergy scores were normalized within each cell line taking the highest synergy score detected in this cell line as 100% and a synergy score of 0 as 0%. For each target shown here identified in the CRISPR/Cas9 screens, the inventors detected a synergistic effect of the drug combination (for at least one drug when several drugs for the same target were tested).

[2] = tested on: glioma cell lines; experiment: clonogenic survival assay; format: cell-based; details: combination with regorafenib vs regorafenib monotherapy
[3] = tested on: SMA560 cells; experiment: in vivo glioma model, intracranially transplanted SMA560 cells; details: VM/Dk mice intracranially transplanted with SMA560 cells; treated for three weeks; experiment stopped at day 120; solvent control 58 days
Protocol: For drugs targeting Bcl2 family members (navitoclax, venetoclax), MEK1/MAP2K1 (selumetinib, trametinib), integrins (cilengitide), and ARAF (sorafenib) further assays were performed to analyze the synergistic effect in combination with Regorafenib. […] The inventors extracted primary cells from glioblastoma tissue to test our drug combinations ex vivo. Analyzing the combination effect on cell viability of regorafenib and navitoclax on four glioblastoma primary cultures the observed effect of the combination treatment was in each model synergistic compared to the predicted effect calculated from both monotherapies (Figs. 4 E and F). The combination of navitoclax and regorafenib was further validated in vivo in VM/Dk mice intracranially transplanted with SMA560 cells (data not shown). The mice were treated either with the drug combination, regorafenib, or navitoclax monotherapies, or a solvent control for three weeks. Time until onset of neurological symptoms was observed. The solvent control group reached its median after 58 days, navitoclax monotherapy after 60 days, and regorafenib monotherapy after 67 days.

SMILES	synergistic effect in acute cytotoxicity synergy assays (ZIP synergy score) [1]	number of clones in clonogenic survival assays, combination treatment compared with regorafenib monotherapy [2]	Time until onset of neurological symptoms (median) [3] [days]
CC1(C)CCC(c2ccc(Cl)cc2)=C(CN2CCN(c3ccc(C(=O)NS(=O)(=O)c4ccc(N[C@H](CCN5CCOCC5)CSc5ccccc5)c(S(=O)(=O)C(F)(F)F)c4)cc3)CC2)C1 [navitoclax]	synergistic effects	significantly reduced numbers of clones	60
CNC(=O)c1cc(Oc2ccc(NC(=O)Nc3ccc(Cl)c(C(F)(F)F)c3)c(F)c2)ccn1 [regorafenib]	–	–	67
CC1(C)CCC(CN2CCN(c3ccc(C(=O)NS(=O)(=O)c4ccc(NCC5CCOCC5)c([N+](=O)[O-])c4)c(Oc4cnc5[nH]ccc5c4)c3)CC2)=C(c2ccc(Cl)cc2)C1 [venetoclax]	synergistic effects	–	–
